From patent publication US9005667B1, “Treating leukemia with a whole, leech saliva extract” (priority 2012, dated 2015)

Experiments:
[1] = system: Salmonella typhi; experiment: Kirby-Bauer disc diffusion; format: cell-based; settings: reference antibiotic disc (5 μg)
[2] = system: Candida albicans ATCC10231; experiment: Kirby-Bauer disc diffusion; format: cell-based; settings: reference antibiotic disc (100unit)
Text: (§1) Experimental procedures include the following steps: • 1.

[3] = system: Cryptococcus neoformans ATCC90112; experiment: Kirby-Bauer disc diffusion; format: cell-based; settings: reference antibiotic disc (100unit)
Text: as §1

[4] = system: alloxan induced-diabetic rats; experiment: Antihyperglycemic activity: fall in fasting blood glucose in alloxan induced-diabetic rats; format: in vivo, rat

## O=C(O)c1cn(C2CC2)c2cc(N3CCNCC3)c(F)cc2c1=O [Cipro, ciprofloxacin]
[1]
  Zone of inhibition, Sal. typhi: 35 mm

## C[C@@H]1[C@H](O)[C@@H](C)/C=C/C=C/CC/C=C/C=C/C=C/C=C/C(O[C@H]2O[C@H](C)[C@@H](O)[C@H](N)[C@@H]2O)CC2O[C@](O)(CC(O)C(O)CCC(O)CC(O)CC(O)CC(=O)O[C@H]1C)CC(O)C2C(=O)O (stereo partly drawn) [Nystatin, nystatin]
[2]
  Zone of inhibition, C. albicans: 10 mm
[3]
  Zone of inhibition, C. neoformance: 9 mm

## insulin: insulin from bovine pancreas (≧27 units/mg)
[4]; all insulin-injected rats, after two hours of injection (p<0.001)
  FBG: sharp significant decrease
[4]; at either dose
  FBG difference between normal rats and treated diabetic rats: No significant difference
[4]; insulin 10 units/kg b.w, after 8 hours of treatment
  FBG: returned to the diabetic state
